Each structure is given as a SMILES string. pIC50, pKi: −log10 of the molar value.

Experimental findings from patent publication US12016863B2, “Inhibitors of RSV replication and applications thereof” (priority 2018, dated 2024) are described below.

Data set [1] deals with RSV N protein (N-P interaction) (Human respiratory syncytial virus A (strain A2), UniProt P03418). As to the kind of experiment: FP assay: competition with 5-FAM-Ppep for purified RSV N. The note with it: for pKi: FP assay, purified RSV N vs 5-FAM-Ppep. Format: binding.
Chain of RSV N protein (N-P interaction) (P03418 whole entry): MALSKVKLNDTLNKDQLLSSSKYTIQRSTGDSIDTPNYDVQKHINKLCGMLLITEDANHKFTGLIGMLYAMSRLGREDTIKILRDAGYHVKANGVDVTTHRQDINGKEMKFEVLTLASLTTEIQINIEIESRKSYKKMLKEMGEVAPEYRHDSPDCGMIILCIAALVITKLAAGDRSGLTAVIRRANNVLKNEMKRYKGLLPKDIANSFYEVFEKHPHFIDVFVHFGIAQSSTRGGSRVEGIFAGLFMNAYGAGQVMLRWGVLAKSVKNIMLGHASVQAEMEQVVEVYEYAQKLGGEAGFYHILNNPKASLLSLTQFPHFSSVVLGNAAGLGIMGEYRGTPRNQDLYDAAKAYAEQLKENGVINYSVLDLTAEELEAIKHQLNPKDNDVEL
Data set [2] relates to RSV. Kind of data set: Cell-based anti-RSV potency in BEAS2B cells. The note with it: human respiratory syncytial virus, BEAS-2B. The source says: (§1) For initial potency assessment, recombinant RSV reporter viruses can be employed to determine dose-response curves. These tests can be run routinely in an automated format, simultaneously assessing 8-fold serial compound dilutions in 3 independent replicates. Active concentrations can be calculated by four-parameter variable slope regression modeling. Individual prodrug candidates failing this assay can be tested for membrane permeability using a Caco-2 cell assay. Resistance-validated Caco-2 monolayers (TEER value >0.5×103Ω) will receive compound from the apical side, followed by LC-MS/MS-based quantification of substance intracellularly and in both chambers after 2-hour incubation. Atenolol, propranolol, and talinolol can be included as references and permeability coefficients (Papp) calculated. Candidates with poor Papp values can be reformulated synthetically. In parallel, all candidates can be subjected to rapid cytotoxicity screening, relying on PrestoBlue to monitor the redox potential of living cells after 48-hour exposure to a concentration range of compound. A validated automated cytotoxicity test pipeline has been established and can calculate CC50 values through variable slope regression modeling.

Data set [3] in a line: Cytotoxicity in BEAS2B cells. Format: cell-based. The note with it: human, read-out: CC50 BEAS2B cells RSV.
Source text: as §1

Data set [4] in a line: Cytotoxicity in HEp2 cells. Format: cell-based. The settings on record: human, read-out: CC50 HEp2 cells RSV.
Source text: as §1

In data set [5] the test system is RSV. As to the kind of experiment: Cell-based anti-RSV potency in HEp2 cells. The settings on record: human respiratory syncytial virus, HEp-2.
Source text: as §1

In data set [6] the target is RSV N-P interaction (Human respiratory syncytial virus A (strain A2), UniProt P03418). As to the kind of experiment: Biolayer interferometry (BLI) competition assay, purified N to P protein biosensors. Format: binding. The settings on record: PBS+BSA 0.01% +Tween20 0.002%. The source says: Dissociation rates of purified N to P protein biosensors determined in presence of GRP-171194 under stringent conditions (PBS+BSA 0.01% +Tween20 0.002%).
Chain of RSV N-P interaction (P03418 whole entry): as above

`Cc1c(Cl)c(=O)oc2cc(O)ccc12` [AX801] showed a negative logarithm of the Ki (pKi) in data set [1] below 3.52. In data set [2], this compound showed a pIC50 of 4.19. For the same compound, the half-maximal cytotoxic concentration (CC50) at 48 h in data set [3] was 116 µM.

In data set [1], `CC(C)COC(=O)C1=CC(c2ccccc2Cl)n2nnnc2N1` (centres unmarked) [EJ3043] gave a negative-log Ki (pKi) below 3.52. Moreover, the pIC50 in data set [2] and in data set [5] was below 3.52 each time. The 50% cytotoxic concentration (CC50) at 48 h in data set [4] and in data set [3] was above 300 µM throughout.

Compound `COC(=O)C1=CC(c2ccccc2Cl)n2nnnc2N1` (centres unmarked) [EJ3051] had a negative logarithm of the Ki (pKi) in data set [1] below 3.52. Also, the pIC50 in data set [2] is 4.00. The CC50 at 48 h in data set [3] is 102 µM.

In data set [1], `CN(C)C(=O)C1=CC(c2ccccc2Cl)n2nnnc2N1` (centres unmarked) [EJ3054] had a pKi below 3.52. This compound had a pIC50 in data set [2] of 4.00. In addition, in data set [3], the CC50 at 48 h is 131 µM.

Consider `CNC(=O)C1=CC(c2ccccc2Cl)n2nnnc2N1` (centres unmarked) [EJ3057], for which, in data set [1], the negative logarithm of the Ki (pKi) was below 3.52. This compound gave a negative logarithm of the IC50 (pIC50) in data set [2] of 3.95. Further, the CC50 at 48 h in data set [3] was above 100 µM.

Regarding `COc1ccc2c(C)c(Cl)c(=O)oc2c1` [EJ3061], in data set [1], the pKi was below 3.52.

In data set [1], `CCOC(=O)C1=CC(c2ccccc2Cl)n2nnnc2N1` (centres unmarked) [EJ3062] gave a negative logarithm of the Ki (pKi) below 3.52. The negative-log IC50 (pIC50) in data set [2] and in data set [5] was below 3.52 throughout. Further, the cytotoxic concentration (CC50) at 48 h in data set [4] and in data set [3] was above 300 µM throughout.

In the case of `Cc1c(Cl)c(=O)oc2cc(OC(C)C)ccc12` [EJ3063], the negative-log Ki (pKi) in data set [1] was below 3.52. For the same compound, the figures for the negative-log IC50 (pIC50) in data set [2] and in data set [5] were 4.84 and 5.72, respectively. The figures for the cytotoxic concentration (CC50) at 48 h in data set [4] and in data set [3] were 1.2 µM and above 300 µM, respectively.

On to `COC(=O)Nc1ccc2c(C)c(Cl)c(=O)oc2c1` [EJ3066], for which the pKi in data set [1] was below 3.52. In addition, the negative logarithm of the IC50 (pIC50) is 3.89 in data set [2] and below 4.00 in data set [5]. Further, the 50% cytotoxic concentration (CC50) at 48 h in data set [4] and in data set [3] was above 100 µM in each case.

Take `CC(=O)Oc1ccc2c(C)cc(=O)oc2c1` [EJ21257]: the pKi in data set [1] is 5.54. The negative logarithm of the IC50 (pIC50) in data set [2] and in data set [5] was below 3.52 throughout. In addition, the figures for the CC50 at 48 h in data set [4] and in data set [3] were above 100 µM and 113 µM, respectively.

Take `O=C(O)C1=CC(c2ccccc2Cl)n2nnnc2N1` (centres unmarked) [GRP-171194, 7-(2-chlorophenyl)-4,7-dihydrotetrazolo[1,5-a]pyrimidine-5-carboxylic acid]: the pKi in data set [1] is 5.62. Moreover, in data set [1] (compound 0.31-40 μM, 5-FAM-Ppep 1 μM), the “competition with 5-FAM-Ppep for N in FP assay” value is “dose-dependent competition”. Further, in data set [6], the “inhibition of purified N binding to P protein biosensors (BLI)” value is reported as “dose-dependent inhibition”. The pIC50 in data set [2] and in data set [5] was below 3.52 throughout. Also, the CC50 at 48 h in data set [4] and in data set [3] was above 300 µM throughout.

`CC(=O)Oc1ccc2c(C)c(Cl)c(=O)oc2c1` [GRP-268365] gave a negative-log Ki (pKi) in data set [1] of 5.66.

The compound `O=C(O)C1=CC(c2ccccc2)n2nnnc2N1` (centres unmarked) [RJW-3-024] had a negative-log Ki (pKi) in data set [1] of 5.00. The pIC50 in data set [2] was below 3.52. Further, the 50% cytotoxic concentration (CC50) at 48 h in data set [3] was above 300 µM.

With `O=C(OCC(F)(F)F)C1=CC(c2ccccc2Cl)n2nnnc2N1` (centres unmarked) [ZD-3-064], the negative logarithm of the Ki (pKi) in data set [1] was below 3.52. In addition, in data set [2], the pIC50 is below 3.52. For the same compound, the CC50 at 48 h in data set [3] is above 300 µM.

`Cc1c(Cl)c(=O)oc2cc(OC(=O)C(C)C)ccc12` [ZD-3-067] showed a pKi in data set [1] of 5.80. In addition, the pIC50 in data set [2] was 3.87; in data set [5] it was 5.19. Besides, the 50% cytotoxic concentration (CC50) at 48 h came out at 7 µM in data set [4] and 251 µM in data set [3].

On to `CC(C)OC(=O)C1=CC(c2ccccc2Cl)n2nnnc2N1` (centres unmarked) [ZD-3-069], for which the pKi in data set [1] is below 3.52. For the same compound, the negative logarithm of the IC50 (pIC50) in data set [2] and in data set [5] was below 3.52 each time. The half-maximal cytotoxic concentration (CC50) at 48 h in data set [4] and in data set [3] was above 300 µM throughout.
